Test results as given in US20080234286A1 (CHEMAGIS Ltd., priority 2007, published 2008).
Where a name gives a salt, the structure may show the parent alone.

Legend:
Type in all cases: physicochemical
[1] = Water content by Karl Fischer titration
Method: The water content measurements were carried out using a Karl Fischer Titrator (Mettler Toledo Model DL-53), according to standard procedures.

[2] = Physical nature / hygroscopicity of the obtained solid (observation); details: as obtained after drying
[3] = Bulk and tapped density (Vankel tapped density tester)
Method: Bulk and tapped densities were measured using Varian's Vankel tapped density tester model 50-2300.

[4] = Retention of amorphous form after compressing at high pressure, checked by X-ray diffractometer; details: about 7.5 tons/cm^2 for 15 minutes
Method: X-ray diffraction data were acquired using a PHILIPS X-ray diffractometer model PW1050-70. System description: Kα1=1.54178 Å, voltage 40 kV, current 28 mA, diversion slit=1°, receiving slit=0.2 mm, scattering slit=1° with a Graphite monochromator. Measurements of 2θ values typically are accurate to within ±0.2 degrees. Experiment parameters: pattern measured between 2θ=3° and 2θ=30° with 0.05° increments; count time was 0.5 second per increment. […]
The four samples, marked as 1-4, were checked by X-ray diffractometer after compressing and the results are detailed in Table 5.

[5] = Storage stability of packed compressed tablets (amorphous form, purity by HPLC)
Excerpt: The term “remains stable”, as defined herein, refers to lack of formation of impurities, while being stored as described herein (see Example 11).
The compressed tablets were packed in a packing comprising internal sealed polyethylene bag, containing the tablets, which was inserted into a middle opaque (e.g., black) polyethylene bag, which was then sealed, wherein the packaging was sealed effectively to prevent penetration of humidity and/or oxygen. The polyethylene bag was packed and sealed in a laminated aluminum bag containing silica.
The samples were packed in the above-mentioned packaging and stored at room temperate and at 40° C. Samples were withdrawn periodically after 5, 8, 13 and 30 days and the purity of the withdrawn material was checked by HPLC.

| % water in the product [1] [%] | SMILES | further results |
| --- | --- | --- |
| 4.8 | Cc1ccc(NC(=O)c2ccc(CN3CCN(C)CC3)cc2)cc1Nc1nccc(-c2cccnc2)n1 [Example 5, imatinib mesylate] |  |
| 4.1 | Cc1ccc(NC(=O)c2ccc(CN3CCN(C)CC3)cc2)cc1Nc1nccc(-c2cccnc2)n1 [Example 3, imatinib mesylate] |  |
| 2.2 | Cc1ccc(NC(=O)c2ccc(CN3CCN(C)CC3)cc2)cc1Nc1nccc(-c2cccnc2)n1 [Reference Example 1, imatinib mesylate, reference compound] | physical nature of the obtained solid (hygroscopicity, flow) [2]: glassy deliquescent material |
| 4.1 | Cc1ccc(NC(=O)c2ccc(CN3CCN(C)CC3)cc2)cc1Nc1nccc(-c2cccnc2)n1 [Example 1, imatinib mesylate] | physical nature of the obtained solid (hygroscopicity, flow) [2]: non-hygroscopic and free-flowing |
| 4.9 | Cc1ccc(NC(=O)c2ccc(CN3CCN(C)CC3)cc2)cc1Nc1nccc(-c2cccnc2)n1 [Example 9, imatinib mesylate] |  |
|  | Cc1ccc(NC(=O)c2ccc(CN3CCN(C)CC3)cc2)cc1Nc1nccc(-c2cccnc2)n1 [Example 2, imatinib mesylate] | bulk density [3]: 0.29 g/mL; tapped density [3]: 0.39 g/mL |
| 3.7 | Cc1ccc(NC(=O)c2ccc(CN3CCN(C)CC3)cc2)cc1Nc1nccc(-c2cccnc2)n1 [Example 4, imatinib mesylate] |  |
| 3.8 | Cc1ccc(NC(=O)c2ccc(CN3CCN(C)CC3)cc2)cc1Nc1nccc(-c2cccnc2)n1 [Example 8, imatinib mesylate] |  |
| 1.7 | Cc1ccc(NC(=O)c2ccc(CN3CCN(C)CC3)cc2)cc1Nc1nccc(-c2cccnc2)n1 [Reference Example 2, imatinib mesylate, reference compound] | physical nature of the obtained solid (hygroscopicity, flow) [2]: very electrostatic and tended to agglomerate |
|  | Cc1ccc(NC(=O)c2ccc(CN3CCN(C)CC3)cc2)cc1Nc1nccc(-c2cccnc2)n1 [amorphous imatinib mesylate, imatinib mesylate] | solid form after being compressed [4]: remains in amorphous form; stability and amorphous form on storage ([5]; stored at 25° C. for at least a month): remains stable and maintains its amorphous form; stability and amorphous form on storage ([5]; stored at 40° C. for at least a month): remains stable and maintains its amorphous form |
| 4.3 | Cc1ccc(NC(=O)c2ccc(CN3CCN(C)CC3)cc2)cc1Nc1nccc(-c2cccnc2)n1 [Example 7, imatinib mesylate] |  |
| 3.2 | Cc1ccc(NC(=O)c2ccc(CN3CCN(C)CC3)cc2)cc1Nc1nccc(-c2cccnc2)n1 [Example 10, imatinib mesylate] |  |
| 3.8 | Cc1ccc(NC(=O)c2ccc(CN3CCN(C)CC3)cc2)cc1Nc1nccc(-c2cccnc2)n1 [Example 6, imatinib mesylate] |  |
